According to patent US10570117B2, “Phenylimidazole compound” (Otsuka Pharmaceutical Factory, Inc., priority 2015, dated 2020):
Converted amounts (≈) assume the structure as drawn. Read-outs that look alike come from different tables or passages of the source.

Assays:
[1] = Solubility in gastric juice or intestinal juice model fluid (precipitation method using DMSO); format: physicochemical; settings: room temperature
Method: Solubility in Gastric Juice or Intestinal Juice Model Fluid
Measurement was performed by a precipitation method using DMSO. Specifically, each of the dimethyl sulfoxide (DMSO) solutions of the compounds was individually added to 1st fluid for Disintegration Test of Japanese Pharmacopoeia (pH: 1.2) or 2nd fluid for Disintegration Test of Japanese Pharmacopoeia (pH: 6.8), and the mixtures were stirred by shaking at room temperature for 24 hours. Subsequently, insoluble substances in each mixture were removed by filtration, and the UV absorption of each filtrate was measured. The obtained values were individually applied to the calibration curves of the compounds prepared in advance to calculate the concentrations of the compounds dissolved (μg/mL).

[2] = pH 1.2, simulated gastric fluid, kinetic from dmso stock, 1st fluid for Disintegration Test of Japanese Pharmacopoeia (pH: 1.2), read-out: Solubility (μg/mL) 1st fluid
[3] = pH 6.8, kinetic from dmso stock, 2nd fluid for Disintegration Test of Japanese Pharmacopoeia (pH: 6.8), read-out: Solubility (μg/mL) 2nd fluid

## COc1cc(-c2cnc(-c3ccc(F)nc3)[nH]2)ccc1OCc1ccc(C(F)(F)F)nc1 [Example 116]
other
  melting point: 144 to 146 °C
[1]; [2]
  solubility at 24 h: 24.1 µg/mL (≈ 54.2 µM)
[1]; [3]
  solubility at 24 h: < 1.6 µg/mL

## COc1cc(-c2c[nH]c(-c3ccc(F)nc3)n2)ccc1OCc1ncccc1F [Example 119]
other
  melting point: 68 to 79 °C
[1]; [2]
  solubility at 24 h: 44.7 µg/mL (≈ 113 µM)
[1]; [3]
  solubility at 24 h: 5.2 µg/mL (≈ 13.2 µM)

## COc1cc(OCn2cccn2)ccc1-c1c[nH]c(-c2ccc(F)nc2)n1 [Example 120]
other
  melting point: 172 to 175 °C
[1]; [2]
  solubility at 24 h: > 73 µg/mL
[1]; [3]
  solubility at 24 h: 4 µg/mL (≈ 10.9 µM)

## COc1cc(OCc2ccc(Br)cc2F)ccc1-c1c[nH]c(-c2ccc(F)nc2)n1 [Example 126]
other
  melting point: 172 to 176 °C
[1]; [2]
  solubility at 24 h: 7.1 µg/mL (≈ 15 µM)
[1]; [3]
  solubility at 24 h: 5.6 µg/mL (≈ 11.9 µM)

## COc1cc(OCc2cncc(C(F)(F)F)c2)ccc1-c1cnc(-c2ccc(F)nc2)[nH]1 [Example 137]
other
  melting point: 210 to 212 °C (dec.)
[1]; [2]
  solubility at 24 h: 39.9 µg/mL (≈ 89.8 µM)
[1]; [3]
  solubility at 24 h: 36.1 µg/mL (≈ 81.2 µM)

## COc1cc(OCc2ncc(C(F)(F)F)cc2F)ccc1-c1cnc(-c2ccc(F)nc2)[nH]1 [Example 139, 3-fluoro-2-[[4-(2-(6-fluoropyridin-3-yl)-1H-imidazol-5-yl)-3-methoxyphenoxy]methyl]-5-(trifluoromethyl)pyridine]
other
  melting point: > 230 °C
[1]; [2]
  solubility at 24 h: 5 µg/mL (≈ 10.8 µM)
[1]; [3]
  solubility at 24 h: < 0.3 µg/mL

## COc1cc(OCc2ncc(F)cc2F)ccc1-c1cnc(-c2ccc(F)nc2)[nH]1 [Example 140]
other
  melting point: 188 to 191 °C
[1]; [2]
  solubility at 24 h: 7.8 µg/mL (≈ 18.9 µM)
[1]; [3]
  solubility at 24 h: 4.8 µg/mL (≈ 11.6 µM)

## COc1cc(OCc2ccc(C(F)(F)F)cn2)ccc1-c1cnc(-c2ccc(C#N)nc2)[nH]1 [Example 150, 5-[5-[2-methoxy-4-((5-(trifluoromethyl)pyridin-2-yl)methoxy)phenyl]-1H-imidazol-2-yl]picolinonitrile]
other
  melting point: 241 to 244 °C (dec.)
[1]; [2]
  solubility at 24 h: 2.4 µg/mL (≈ 5.32 µM)
[1]; [3]
  solubility at 24 h: 0.3 µg/mL (≈ 0.665 µM)

## COc1cc(OCc2ccc(C(F)(F)F)cn2)ccc1-c1cn(C)c(-c2ccc(F)nc2)n1 [Example 151, 2-fluoro-5-[4-[2-methoxy-4-((5-(trifluoromethyl)pyridin-2-yl)methoxy)phenyl]-1-methyl-1H-imidazol-2-yl]pyridine]
other
  melting point: 168 to 171 °C
[1]; [2]
  solubility at 24 h: > 92 µg/mL
[1]; [3]
  solubility at 24 h: 0.9 µg/mL (≈ 1.96 µM)

## COc1cc(OCc2ccc(C(F)(F)F)cn2)ccc1-c1c(C)nc(-c2ccc(F)nc2)n1C [Example 159]
other
  melting point: 136 to 138 °C
[1]; [2]
  solubility at 24 h: > 94 µg/mL
[1]; [3]
  solubility at 24 h: 4 µg/mL (≈ 8.47 µM)

## COc1cc(OCc2ccc(C(F)(F)F)nc2)ccc1-c1cn(C)c(-c2ccc(F)nc2)n1 [Example 163]
other
  melting point: 163 to 165 °C
[1]; [2]
  solubility at 24 h: > 92 µg/mL
[1]; [3]
  solubility at 24 h: 1.4 µg/mL (≈ 3.05 µM)

## COCn1cc(-c2ccc(OCc3ccc(C(F)(F)F)cn3)cc2OC)nc1-c1ccc(F)nc1 [Example 166]
other
  melting point: 172 to 174 °C
[1]; [2]
  solubility at 24 h: > 98 µg/mL
[1]; [3]
  solubility at 24 h: 0.6 µg/mL (≈ 1.23 µM)

## COc1cc(OCc2ccc(C(F)(F)F)cn2)ccc1-c1cn(C)c(-c2ccc(Cl)nc2)n1 [Example 168]
other
  melting point: 186 to 190 °C
[1]; [2]
  solubility at 24 h: > 95 µg/mL
[1]; [3]
  solubility at 24 h: < 0.3 µg/mL

## COc1cc(OCc2ccc(C(F)(F)F)nc2)ccc1-c1[nH]c(C2CCC(F)(F)C2)nc1Cl (stereo not drawn) [Example 180]
other
  melting point: 172 to 174 °C
[1]; [2]
  solubility at 24 h: 89.1 µg/mL (≈ 183 µM)
[1]; [3]
  solubility at 24 h: 0.4 µg/mL (≈ 0.82 µM)

## COc1cc(OCc2ncccc2C#N)ccc1-c1[nH]c(C2CCC(F)(F)CC2)nc1Br [Example 184]
other
  melting point: 160 to 161 °C
[1]; [2]
  solubility at 24 h: 96.3 µg/mL (≈ 191 µM)
[1]; [3]
  solubility at 24 h: 5.8 µg/mL (≈ 11.5 µM)

## COc1cc(OCc2ccc(C(F)(F)F)nc2)c(C)cc1-c1[nH]c(C2CCC(F)(F)CC2)nc1Br [Example 187]
other
  melting point: 195 to 196 °C
[1]; [2]
  solubility at 24 h: 75.6 µg/mL (≈ 135 µM)
[1]; [3]
  solubility at 24 h: < 0.4 µg/mL

## COc1cc(OCc2ccc(C(F)(F)F)nc2)c(C)cc1-c1[nH]c(C2CCC(F)(F)CC2)nc1Cl [Example 192]
other
  melting point: 175 to 178 °C
[1]; [2]
  solubility at 24 h: 22.6 µg/mL (≈ 43.8 µM)
[1]; [3]
  solubility at 24 h: 0.6 µg/mL (≈ 1.16 µM)

## COc1cc(OCn2cccn2)ccc1-c1[nH]c(C2CCC(F)(F)CC2)nc1Cl [Example 196]
other
  melting point: 182 to 184 °C
[1]; [2]
  solubility at 24 h: > 85 µg/mL
[1]; [3]
  solubility at 24 h: < 7.5 µg/mL

## COc1cc(OCc2coc(C)n2)ccc1-c1[nH]c(C2CCC(F)(F)CC2)nc1Cl [Example 197]
other
  melting point: 130 to 131 °C
[1]; [2]
  solubility at 24 h: > 88 µg/mL
[1]; [3]
  solubility at 24 h: 25.7 µg/mL (≈ 58.7 µM)

## COc1cc(OCc2ccc(C(F)(F)F)cn2)ccc1-c1nc(-c2ccc(F)nc2)[nH]c1Br [Example 223]
other
  melting point: 176 to 178 °C
[1]; [2]
  solubility at 24 h: > 105 µg/mL
[1]; [3]
  solubility at 24 h: < 0.4 µg/mL

## COc1cc(OCc2ccc(C(F)(F)F)nc2)ccc1-c1nc(-c2ccc(F)cn2)[nH]c1Cl [Example 226]
other
  melting point: 186 to 193 °C (dec.)
[1]; [2]
  solubility at 24 h: < 8.5 µg/mL
[1]; [3]
  solubility at 24 h: 3.4 µg/mL (≈ 7.1 µM)

## COc1cc(OCc2ccc(C(F)(F)F)nc2)ccc1-c1nc(-c2ccc(Cl)cn2)[nH]c1Cl [Example 228]
other
  melting point: 193 to 196 °C
[1]; [2]
  solubility at 24 h: 9.7 µg/mL (≈ 19.6 µM)
[1]; [3]
  solubility at 24 h: 2.6 µg/mL (≈ 5.25 µM)

## COc1cc(OC(C)c2ccc(C(F)(F)F)cc2)ccc1-c1[nH]c(-c2ccc(F)nc2)nc1Cl (stereo not drawn) [Example 236]
other
  melting point: 137 to 146 °C
[1]; [2]
  solubility at 24 h: < 0.3 µg/mL
[1]; [3]
  solubility at 24 h: 29.9 µg/mL (≈ 60.8 µM)

## COc1cc(OC(C)c2ccc(C(F)(F)F)cn2)ccc1-c1[nH]c(-c2ccc(F)nc2)nc1Cl (stereo not drawn) [Example 240]
other
  melting point: 165 to 168 °C
[1]; 1st fluid for Disintegration Test of Japanese Pharmacopoeia (pH: 1.2), 24 hours
  Solubility (μg/mL) 1st fluid: 12 µg/mL (≈ 24.3 µM)
[1]; 2nd fluid for Disintegration Test of Japanese Pharmacopoeia (pH: 6.8), 24 hours
  Solubility (μg/mL) 2nd fluid: <0.4 µg/mL

## COc1cc(OCc2ncc(C(F)(F)F)cc2F)ccc1-c1[nH]c(-c2ccc(Cl)nc2)nc1Cl [Example 245]
other
  melting point: 116 to 131 °C
[1]; [2]
  solubility at 24 h: 90.2 µg/mL (≈ 176 µM)
[1]; [3]
  solubility at 24 h: 11.7 µg/mL (≈ 22.8 µM)

## COc1cc(OCc2ncc(F)cc2F)ccc1-c1[nH]c(-c2ccc(Cl)nc2)nc1Br [Example 246]
other
  melting point: 190 to 193 °C
[1]; [2]
  solubility at 24 h: 15.6 µg/mL (≈ 30.7 µM)
[1]; [3]
  solubility at 24 h: 5 µg/mL (≈ 9.85 µM)

## COc1cc(OCc2ncccc2C(F)(F)F)ccc1-c1[nH]c(-c2ccc(F)nc2)nc1Br [Example 275]
other
  melting point: 144 to 154 °C
[1]; [2]
  solubility at 24 h: 96 µg/mL (≈ 183 µM)
[1]; [3]
  solubility at 24 h: 4.2 µg/mL (≈ 8.03 µM)

## COc1cc(O[C@@H](C)c2ccc(C(F)(F)F)cc2)ccc1-c1[nH]c(-c2ccc(F)nc2)nc1Cl [Example 288]
other
  melting point: 137 to 139 °C
[1]; [2]
  solubility at 24 h: < 0.3 µg/mL
[1]; [3]
  solubility at 24 h: 23.4 µg/mL (≈ 47.6 µM)

## COc1cc(OC(C)c2ncc(C(F)(F)F)cc2F)ccc1-c1[nH]c(-c2ccc(F)nc2)nc1Cl (stereo not drawn) [Example 289]
other
  melting point: 155 to 159 °C
[1]; [2]
  solubility at 24 h: 10.8 µg/mL (≈ 21.1 µM)
[1]; [3]
  solubility at 24 h: 2.2 µg/mL (≈ 4.31 µM)

## COc1cc(O[C@@H](C)c2ccc(C(F)(F)F)nc2)ccc1-c1[nH]c(-c2ccc(F)nc2)nc1Cl [Example 291]
other
  melting point: 74 to 97 °C
[1]; [2]
  solubility at 24 h: 9.9 µg/mL (≈ 20.1 µM)
[1]; [3]
  solubility at 24 h: 3.5 µg/mL (≈ 7.1 µM)

## COc1cc(OCc2ccc(C(F)(F)F)nc2)ccc1-c1nc(-c2ccc(Cl)nc2)n(C)c1Br [Example 298]
other
  melting point: 177 to 182 °C
[1]; [2]
  solubility at 24 h: 108 µg/mL (≈ 196 µM)
[1]; [3]
  solubility at 24 h: 1.6 µg/mL (≈ 2.89 µM)

## COc1cc(OCc2ccc(C(F)(F)F)nc2)ccc1-c1c(Br)nc(-c2ccc(F)nc2)n1C [Example 305]
other
  melting point: 134 to 136 °C
[1]; [2]
  solubility at 24 h: 24.7 µg/mL (≈ 46 µM)
[1]; [3]
  solubility at 24 h: 0.4 µg/mL (≈ 0.744 µM)

## COc1cc(OCc2ccc(C(F)(F)F)nc2)ccc1-c1c(Cl)nc(-c2ccc(F)nc2)n1C [Example 311]
other
  melting point: 138 to 140 °C
[1]; [2]
  solubility at 24 h: 5.6 µg/mL (≈ 11.4 µM)
[1]; [3]
  solubility at 24 h: < 0.4 µg/mL

## COc1cc(OCc2ccc(C(F)(F)F)cn2)ccc1-c1c(Cl)nc(-c2ccc(F)nc2)n1C [Example 312]
other
  melting point: 142 to 144 °C
[1]; [2]
  solubility at 24 h: 23.6 µg/mL (≈ 47.9 µM)
[1]; [3]
  solubility at 24 h: < 0.4 µg/mL
